Measurements taken from patent EP0043274A2, “Antithrombotic treatment” (priority 1980, dated 1982).

Tested on: platelet rich plasma
Assay: Platelet aggregation in platelet rich plasma from injected rabbit (ex vivo)
Settings: injected with about 72 mg/kg of body weight; blood sample after 5 hours
Protocol: (§1) A rabbit is injected with about +72 mg/kg of body weight of triethyl amine bisulfite. After a period of 5 hours, a blood sample was withdrawn and centrifuged at 1000 r.p.m. (220 g) for 10 minutes to give a platelet rich plasma. […] It is concluded that triethyl amine bisulfite is an agent which inhibits thrombotic condition formation in vivo.
as §1, with “72” for “+72”, “sodium formaldehyde” for “triethyl amine”, “minuts” for “minutes”, “thrombus” for “thrombotic condition”

## CCN(CC)CC.O=S(O)O [TRIETHYL AMINE BISULFITE, triethyl amine bisulfite]
  aggregation of platelets in comparison with an untreated rabbit: markedly decreased
